system: mouse ADAMTS7; assay: TMT10 TAILS N-terminomics, HUVEC experiment (process replicates, trypsin/AspN digest); format: cell-based, human; conditions: HUVEC TAILS HC; log fold change of N-terminal peptide, Ad-mADAMTS7 WT over EQ
Description: ADAMTS7 Expression, Cell Culture and Preparation of the Secreted Proteins—Full-length mouse Adamts7 1-1857 (Uniprot Q68SA9, WT or E373Q catalytic mutant) with a carboxyl terminal 3xFLAG tag was used to generate custom adenoviruses as previously described. Adeno-CMV-Luciferase (Ad-Luc) from Vector Biolabs was used as a negative control. Human Coronary Artery Smooth Muscle Cells (HCA-SMC) were obtained from Lonza and expanded in Lonza SmGM-2 media in 15 cm tissue culture plates. Twenty-four hours before media collection, near confluent plates were transduced with 50 MOI adenovirus and switched to Lonza Basal SM media with volumes of 20 ml per 15 cm plate. Expression of the Flag tagged ADAMTS7 was confirmed from the media using western blot and detected using the anti-Flag M2-HRP antibody (Sigma, A8592). Collected media was processed by adding protease inhibitors (1 mM EDTA and 1 mM PMSF) and clarified by 500 g×5 min spin at 4 C to pellet cell debris. Cell media supernatants were then passed through a 0.22 um filter and kept chilled. Processed media was then concentrated 50-100× using 3 kDa Centricon Plus-70 filter unit, spun at 3,500 g×60 min at 4 C. Approximately 10% of the processed, concentrated media was set aside for total secretome proteolytic analysis. The remaining 90% of the processed, concentrated media was buffer exchanged into 50 mM HEPES pH 8.0, 150 mM NaCl (2×50 ml) using the 3 kDa Centricon Plus-70 filter unit and concentrated to >2 mg/ml to serve as input for the TAILS experiment. Secretome and TAILS input samples were stored at −80° C.
For the first experiment, referred to as SMC1, 120 ml of media from 6×15 cm dishes was pooled from each condition (Luc, WT, EQ) and processed to produce three separate inputs for the TAILS experiment. Luc, WT and EQ inputs from the SMC1 experiment were each divided into triplicate 400 ug samples to generate technical replicate TAILS data. For the second experiment, referred to as SMC2, media was processed separately in triplicate for each condition (Luc1, Luc2, Luc3, WT1, WT2, WT3, EQ1, EQ2, EQ3) using 60 ml of media from 3×15 cm dishes for each process replicate. Inputs from the SMC2 experiment used process replicates of 300 ug each to generate TAILS data. The third experiment used input from cultured Human umbilical vein endothelial cells (HUVEC) from Lifeline Cell Technology grown in VascuLife Media and transduced in Lifeline Basal EC (+bFGF2 10 ng/ml). The HUVEC experiment used the same strategy as the SMC2 experiment, with 40 ml of media from 2×15 cm dishes for each process replicate and used 200 ug each to generate TAILS data. Inputs for process replicate experiments were restricted to the lowest concentration from the 9 parallel samples for SMC2 or HUVEC.
TMT10 isotopic labeling and negative selection of non-labeled peptides-Sample preparation was performed based on the TAILS protocol from the Overall lab with some modifications. From a single experiment, nine parallel protein samples in 50 mM HEPES pH 8.0, 150 mM NaCl were separately denatured with guanidinium chloride (Sigma, G4505) to reach a final concentration of 2.5M guanidinium chloride and 250 mM HEPES and incubated at 65° C. for 15 min. Reduction was achieved through addition of tris(2-carboxylethyl) phosphine (TCEP) at a final concentration of […] and incubated at 65° C. for 45 min. Alkylation reaction was performed with addition of iodoacetamide (IAA, Sigma, A3221) to a final concentration of 10 mM IAA for 15 min at room temperature in the dark. Following denaturation, reduction and alkylation steps, ten percent of each of the nine parallel protein samples was removed and combined to serve as a pooled reference. Isobaric tags were added to free amine groups using the TMT10plex Isobaric Mass Tagging Kit (ThermoFisher, 90113) with TMT channels randomly assigned to the nine samples and TMT 131 assigned to the pooled reference. […]

Substance | logFC.mWT.over.mEQ
LTBP1_393 (LTATNFR; listed as Homo sapiens) | 3.33
HSPG2_2331 (ANLAYPAGSTQPIR; listed as Homo sapiens) | 1.73
EFEMP1_124 (AVAGPEMQTGR; listed as Homo sapiens) | 3.31
FN1_1656 (SSSPVTGYR; listed as Homo sapiens) | 1.63
LOX_124 (WFQAGYSTSR; listed as Homo sapiens) | 3.35
FLNA_1285 (LTQTGGPHVKAR; listed as Homo sapiens) | 3.81
FBN1_29 (LEAGNVKETR; listed as Homo sapiens) | 3.91
FN1_40 (QSPVAVSQSKPGCYDNGKHYQINQQWER; listed as Homo sapiens) | 2.96
LOXL2_37 (FQQPAPEYHQPQAPANVAKIQLR; listed as Homo sapiens) | 3.48
AEBP1_37 (FLEGFLSELEPEPR; listed as Homo sapiens) | 4.34
IGFBP7_101 (AAGGPGVSGVCVCKSR; listed as Homo sapiens) | 1.89
FN1_36 (MVQPQSPVAVSQSKPGCYDNGKHYQINQQWER; listed as Homo sapiens) | 3.45
FN1_886 (NQESTPVVIQQETTGTPR; listed as Homo sapiens) | 2.04
FN1_1143 (LTPGVEYVYTIQVLR; listed as Homo sapiens) | 3.68

same assay, conditions: HUVEC experiment; log fold change, mouse ADAMTS7 WT over EQ

Substance | HUVEC logFC.mWT.over.mEQ
EFEMP1_125 (VAGPEMQTGR; listed as Homo sapiens) | 2.45
HSPG2_275 (LLPGSVR; listed as Homo sapiens) | 0.77
FN1_886 (NQESTPVVIQQETTGTPR; listed as Homo sapiens) | 3.68

Source: patent publication US20240368668A1, “SUBSTRATES AND BIOMARKERS OF ADAMTS7” (The Broad Institute, Inc., priority 2021, published 2024)
